According to patent US5061794A, “Cephalosporin derivatives, and antibacterial agents” (priority 1986, dated 1991):

Tests used:
E. coli CSH(RE45) = test: microbe, parasite or virus in culture; assay type: cell-based; details: Escherichia coli, 16 h, read-out: Minimum Inhibitory Concentration (MIC), *E. coli CSH(RE45), lactamase-producing strain; 10^6 CFU/ml
How it was run: (§1)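 Plate dilution on Mueller Hinton agar with various antibiotic concentrations. Inoculum size was 10^6 CFU/ml, incubation 16 hours at 37° C.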

E. coli CSH2 (RK1) = test: microbe, parasite or virus in culture; assay type: cell-based; details: Escherichia coli, 16 h, read-out: Minimum Inhibitory Concentration (MIC), *E. coli CSH2 (RK1), lactamase-producing strain; 10^6 CFU/ml
How it was run: as §1

A. calcoaceticus No. 4 = test: in vitro antibacterial activity, agar plate dilution method (MIC); assay type: cell-based, Acinetobacter calcoaceticus; details: Acinetobacter calcoaceticus, NO.4, 16 h, A. calcoaceticus No. 4; 10^6 CFU/ml; read-out: Minimum Inhibitory Concentration (MIC)
How it was run: as §1

Ps. cepacia 23 = test: as above; assay type: cell-based, Pseudomonas cepacia; details: Burkholderia cepacia, 16 h; Ps. cepacia 23; 10^6 CFU/ml; read-out: Minimum Inhibitory Concentration (MIC)
How it was run: as §1

[1] = system: Enterobacter cloacae GN 5797; test: β-lactamase inducibility; assay type: cell-based; details: antibiotic at 50, 10 and 1 μg/ml; cephaloridine as substrate
Method: The assay method for induction of β-lactamase by β-latam antibiotics was as follows:
The test organism, Enterobacter cloacae GN 5797, was grown overnight in Mueller Hinton broth (Dlfco Laboratories, Detroit, Mich.) at 37° C. The culture was diluted 10-fold into 20 ml of the flesh medium and incubated with shaking at 37° C. After 2 hours of incubation, antibiotics were added to final concentrations of 50 μg/ml, 10 μg/ml and 1 μg/ml, and the incubation was continued. At 1 hour intervals after the addition of antibiotic, 3 ml of sample was taken, and immediately added with 0.1 ml of 50 mM sodium azide. The cells were harvested and washed with 50 mM phosphate buffer (ph 7.0). The cells were suspended in 5 ml of 50 mM phosphate buffer and disrupted with a sonicater in an ice-water bath. The broken cells were centrifuged at 16,500 G for 40 minutes at 4° C., and the resulting supernatant fluid was used as the crude enzyme. β-Lactamase activity was determined by a sopectrophotometric method (Antmicrob. Agents Chemother. 17, 355-358, 1980) with cephaloridine as substrate. The concentration of protein was determined by the method of Lowry (J. Biol. Chem. 193, 265-275, 1951). […] As a representative example, the compound of EXAMPLE 50 was administered to mice by means of subcutaneous administration, and the concentration in the blood was measured.

P. vulgaris HX-19 = test: in vitro antibacterial activity, agar plate dilution method (MIC); assay type: cell-based; details: Proteus vulgaris, HX19, 16 h, P. vulgaris HX-19; 10^6 CFU/ml; read-out: Minimum Inhibitory Concentration (MIC)
How it was run: as §1

S. aureus 209P NIHJ-JC1 = test: as above; assay type: cell-based; details: Staphylococcus aureus, 16 h, S. aureus 209P NIHJ-JC1; 10^6 CFU/ml, 37° C., 16 hours; read-out: Minimum Inhibitory Concentration (MIC)
How it was run: as §1

M. morganii GN5407 = test: as above; assay type: cell-based; details: Morganella morganii, GN5407, 16 h, read-out: Minimum Inhibitory Concentration (MIC), *M. morganii GN5407, lactamase-producing strain; 10^6 CFU/ml
How it was run: as §1

S. marcescens No. 16-2 = test: as above; assay type: cell-based; details: Serratia marcescens, NO.162, 16 h, read-out: Minimum Inhibitory Concentration (MIC)
How it was run: as §1

P. vulgaris No. 33 = test: as above; assay type: cell-based; details: Proteus vulgaris, NO.33, 16 h, read-out: Minimum Inhibitory Concentration (MIC), *P. vulgaris No. 33, lactamase-producing strain; 10^6 CFU/ml
How it was run: as §1

E. coli GN5482 = test: as above; assay type: cell-based; details: Escherichia coli, GN5482, 16 h, read-out: Minimum Inhibitory Concentration (MIC)
How it was run: as §1

K. pneumoniae PCI-602 = test: as above; assay type: cell-based; details: Klebsiella pneumoniae, PCI602, 16 h, read-out: Minimum Inhibitory Concentration (MIC), K. pneumoniae PCI-602; 10^6 CFU/ml
How it was run: as §1

S. marcescens IAM 1184 = test: as above; assay type: cell-based; details: Serratia marcescens, IAM1184, 16 h, S. marcescens IAM 1184; 10^6 CFU/ml; read-out: Minimum Inhibitory Concentration (MIC)
How it was run: as §1

E. coli NIHJ JC2 = test: as above; assay type: cell-based; details: Escherichia coli, NIHJJC2, 16 h, read-out: Minimum Inhibitory Concentration (MIC), E. coli NIHJ JC2, 10^6 CFU/ml, 37° C.
How it was run: as §1

K. oxytoca GN10650 = test: as above; assay type: cell-based; details: Klebsiella oxytoca, GN10650, 16 h, read-out: Minimum Inhibitory Concentration (MIC), *K. oxytoca GN10650, lactamase-producing strain; 10^6 CFU/ml
How it was run: as §1

E. cloacae 963 = test: as above; assay type: cell-based; details: Enterobacter cloacae, 963, 16 h, read-out: Minimum Inhibitory Concentration (MIC), E. cloacae 963; 10^6 CFU/ml
How it was run: as §1

E. cloacae Nek 39 = test: as above; assay type: cell-based; details: Enterobacter cloacae, NEK39, 16 h, read-out: Minimum Inhibitory Concentration (MIC), *E. cloacae Nek 39, lactamase-producing strain; 10^6 CFU/ml
How it was run: as §1

K. pneumoniae No. 42 = test: as above; assay type: cell-based; details: Klebsiella pneumoniae, NO.42, 16 h, read-out: Minimum Inhibitory Concentration (MIC), *K. pneumoniae No. 42, lactamase-producing strain; 10^6 CFU/ml
How it was run: as §1

Ps. aeruginosa AKR17 = test: as above; assay type: cell-based, Pseudomonas aeruginosa; details: Pseudomonas aeruginosa, AKR17, 16 h, read-out: Minimum Inhibitory Concentration (MIC), Ps. aeruginosa AKR17; 10^6 CFU/ml
How it was run: as §1

Ps. aeruginosa IF03445 = test: as above; assay type: cell-based, Pseudomonas aeruginosa; details: Pseudomonas aeruginosa, IF03445, 16 h, read-out: Minimum Inhibitory Concentration (MIC), Ps. aeruginosa IF03445; 10^6 CFU/ml
How it was run: as §1

Ps. aeruginosa AK 109 = test: as above; assay type: cell-based, Pseudomonas aeruginosa; details: Pseudomonas aeruginosa, AK109, 16 h, Ps. aeruginosa AK 109; 10^6 CFU/ml; read-out: Minimum Inhibitory Concentration (MIC)
How it was run: as §1

In the case of CC(C)(O/N=C(\C(=O)N[C@@H]1C(=O)N2C(C(=O)O)=C(CSc3nnc(-c4ccc(O)c(O)c4)o3)CS[C@H]12)c1csc(N)n1)C(=O)O [Ex. 11, disodium 7β-[2-(2-aminothiazol-4-yl)-(1-carboxylate-1-methylethoxyimino)acetamido]-3-[5(3,4-dihydroxyphenyl)-1,3,4-oxadiazol-2-yl]thiomethyl-3-cephem-4-carboxylate], the MIC (E. coli CSH(RE45)) is reported as 1.56 µg/mL, the MIC (E. coli CSH2 (RK1)) is reported as under 0.006 µg/mL and the MIC (A. calcoaceticus No. 4) is reported as 0.05 µg/mL. For the same compound, the MIC (Ps. cepacia 23) was under 0.006 µg/mL, the β-lactamase inducibility [1] was “no substantial β-lactamase-inducing activity was observed” and the MIC (P. vulgaris HX-19) was under 0.006 µg/mL. The MIC (S. aureus 209P NIHJ-JC1) was 25 µg/mL, the MIC (M. morganii GN5407) was 0.05 µg/mL and the MIC (S. marcescens No. 16-2) was 0.39 µg/mL. The MIC (P. vulgaris No. 33) was 0.025 µg/mL, the MIC (E. coli GN5482) was 0.39 µg/mL and the MIC (K. pneumoniae PCI-602) was under 0.006 µg/mL. For the same compound, the MIC (S. marcescens IAM 1184) was 0.0125 µg/mL, the MIC (E. coli NIHJ JC2) was 0.1 µg/mL and the MIC (K. oxytoca GN10650) was 0.0125 µg/mL. The MIC (E. cloacae 963) was 0.025 µg/mL, the MIC (E. cloacae Nek 39) was 0.05 µg/mL and the MIC (K. pneumoniae No. 42) was 0.025 µg/mL. The MIC (Ps. aeruginosa AKR17) was 1.56 µg/mL, the MIC (Ps. aeruginosa IF03445) was 0.39 µg/mL and the MIC (Ps. aeruginosa AK 109) was 0.2 µg/mL.
